The values that follow come from patent US8722849B2, “Polypeptides” (Novo Nordisk A/S, priority 2011, dated 2014).

Data set [1] concerns the target T1, human amylin receptor (amylin 3(a) receptor: human calcitonin receptor + RAMP-3) (Homo sapiens, UniProt O60896+P30988).
T1 construct: expressed in transfected cells; host or cells: BHK570
T1 sequence (P30988 25-474): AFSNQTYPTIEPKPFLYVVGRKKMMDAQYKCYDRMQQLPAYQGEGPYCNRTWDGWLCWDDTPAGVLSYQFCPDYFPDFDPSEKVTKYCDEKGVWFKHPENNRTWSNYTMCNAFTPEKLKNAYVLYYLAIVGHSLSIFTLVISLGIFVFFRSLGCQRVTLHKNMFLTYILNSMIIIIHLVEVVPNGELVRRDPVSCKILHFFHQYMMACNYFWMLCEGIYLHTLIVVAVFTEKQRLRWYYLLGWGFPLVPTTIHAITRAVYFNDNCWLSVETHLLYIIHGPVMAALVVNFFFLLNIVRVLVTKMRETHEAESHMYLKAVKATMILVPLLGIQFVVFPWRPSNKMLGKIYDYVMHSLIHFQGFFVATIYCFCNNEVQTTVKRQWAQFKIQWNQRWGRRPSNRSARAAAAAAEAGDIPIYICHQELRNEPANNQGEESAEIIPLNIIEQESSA
T1 sequence (O60896 24-148 partner): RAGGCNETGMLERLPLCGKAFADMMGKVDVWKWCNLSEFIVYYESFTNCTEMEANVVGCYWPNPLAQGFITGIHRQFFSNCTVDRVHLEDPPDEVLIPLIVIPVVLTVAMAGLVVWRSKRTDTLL
Put plainly: Assay (II)a functional CRE-luciferase assay, human amylin receptor. Type of data set: cell-based. The following applies: Table 2; BHK amylin 3(a)-receptor/CRE-luc cells.

Data set [2] concerns the target T2, human calcitonin receptor (Homo sapiens, UniProt P30988).
T2 construct: expressed in transfected cells; host or cells: BHK570
T2 sequence (P30988 25-474): T1 sequence (P30988 25-474)
Kind of data set: Assay (II)a functional CRE-luciferase assay, human calcitonin receptor. Type of data set: cell-based. The following applies: Table 7; human calcitonin (CTa) receptor.

Data set [3] can be described thus: Assay (III) ThT fibrillation assay for physical stability. Type of data set: physicochemical. The following applies: ThT fibrillation assay. A digest of the protocol: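 Freshly prepared formulations, pH-adjusted, with 1 μM ThT; four or eight replicates incubated at 37 °C under 960 rpm orbital shaking. Fluorescence (ex 444/em 485 nm) read every 20 min; […]. Peptide concentration measured by RP-HPLC before and after the run.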

Data set [4] can be described thus: Assay (IV) determination of solubility. In kind it is physicochemical. In outline:
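Eight 100 mM buffers (glycylglycine pH 3.0–5.0, bistrispropane pH 6.0–8.0) each received an equal volume of polypeptide dissolved in water at ~500 nmol/ml. Soluble polypeptide was measured by HPLC following 18 hours at room temperature and centrifugation.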

Setting [5] is: bistrispropane buffer, pH 6, pH 6.0, read-out: Solubility pH 6.0.
[6] abbreviates: bistrispropane buffer, pH 6.5, pH 6.5, read-out: Solubility pH 6.5.
The mark [7] stands for this setting: bistrispropane buffer, pH 7, pH 7.0, 18 hours at room temperature, Table 3, read-out: Solubility pH 7.0.
[8] abbreviates: bistrispropane buffer, pH 7, pH 7.0, read-out: Solubility pH 7.0.
The mark [9] stands for this setting: bistrispropane buffer, pH 7.5, pH 7.5, read-out: Solubility pH 7.5.
Where [10] appears, read: bistrispropane buffer, pH 8, pH 8.0, read-out: Solubility pH 8.0.
The mark [11] stands for this setting: glycylglycine buffer, pH 3, pH 3.0, read-out: Solubility pH 3.0.
Setting [12] is: glycylglycine buffer, pH 4, pH 4.0, 18 hours at room temperature, Table 2, read-out: Solubility pH 4.0.
The mark [13] stands for this setting: glycylglycine buffer, pH 4, pH 4.0, read-out: Solubility pH 4.0.
Setting [14] is: glycylglycine buffer, pH 5, pH 5.0, read-out: Solubility pH 5.0.

Values after ≈ are worked out from the molar mass of the structure shown. Like-named read-outs stand apart in the source and are kept apart here. Starred links: 1 amine or outer side, 2 acyl side, 3 side chain; linkers in the order of their positions; H or OH if unused. Positions of bridges follow the written chain, without caps; N, C: chain ends. Residues, ends and D or L forms follow the SMILES beside them. *: point of attachment. C20 diacid = O=C(O)CCCCCCCCCCCCCCCCCCC(=O)*; γGlu = O=C(O)[C@H](CCC(=O)[*:2])N[*:1]

For `CC[C@H](C)[C@H](NC(=O)[C@@H]1CCCN1C(=O)CNC(=O)[C@H](Cc1ccccc1)NC(=O)[C@H](CC(N)=O)NC(=O)[C@H](CC(N)=O)NC(=O)[C@H](CO)NC(=O)[C@H](CO)NC(=O)[C@H](Cc1c[nH]cn1)NC(=O)[C@H](Cc1c[nH]cn1)NC(=O)[C@H](CC(C)C)NC(=O)[C@H](Cc1ccccc1)NC(=O)[C@H](CCC(=O)O)NC(=O)[C@H](C)NC(=O)[C@H](CC(C)C)NC(=O)[C@H](CCCNC(=N)N)NC(=O)[C@H](CCC(N)=O)NC(=O)[C@@H](NC(=O)[C@H](C)NC(=O)[C@@H]1CSSC[C@H](NC(=O)[C@H](CCCNC(=N)N)NC(=O)[C@H](CCC(=O)O)NC(=O)CC[C@H](NC(=O)CCCCCCCCCCCCCCCCCCC(=O)O)C(=O)O)C(=O)N[C@@H](CC(N)=O)C(=O)N[C@@H]([C@@H](C)O)C(=O)N[C@@H](C)C(=O)N[C@@H]([C@@H](C)O)C(=O)N1)[C@@H](C)O)C(=O)N[C@@H](CC(C)C)C(=O)N1CCC[C@H]1C(=O)N1CCC[C@H]1C(=O)N[C@H](C(=O)N[C@@H](CC(N)=O)C(=O)N[C@H](C(=O)NCC(=O)N[C@@H](CO)C(=O)N[C@@H](CC(N)=O)C(=O)N[C@H](C(=O)N[C@@H](Cc1ccc(O)cc1)C(N)=O)[C@@H](C)O)C(C)C)[C@@H](C)O` [Example 25, N-alpha-[(S)-4-Carboxy-4-(19-carboxynonadecanoylamino)butyryl]-Glu-[Arg1,Glu14,His17]-pramlintide] ({C20 diacid-γGlu}-ERCNTATCATQRLAEFLHHSSNNFGPILPPTNVGSNTY-NH2; disulfide 3-8 (inferred)), the EC50 in data set [1] amounted to 0.119 nM; in data set [2], 0.184 nM. In data set [3], the “ThT pH 4.0 lag time (h)” value amounted to 2.7 h. The solubility at 18 h in data set [4] (setting [5]), in data set [4] (setting [6]), in data set [4] (setting [7]), in data set [4] (setting [8]), in data set [4] (setting [9]) and in data set [4] (setting [10]) was over 200 µM each time. In addition, the solubility at 18 h in data set [4] (setting [11]), in data set [4] (setting [12]), in data set [4] (setting [13]) and in data set [4] (setting [14]) was over 200 µM throughout.

As to `CC[C@H](C)[C@H](NC(=O)[C@@H]1CCCN1C(=O)CNC(=O)[C@H](Cc1ccccc1)NC(=O)[C@H](CC(N)=O)NC(=O)[C@H](CC(N)=O)NC(=O)[C@H](CO)NC(=O)[C@H](CO)NC(=O)[C@H](CCCNC(=N)N)NC(=O)[C@H](Cc1c[nH]cn1)NC(=O)[C@H](CC(C)C)NC(=O)[C@H](Cc1ccccc1)NC(=O)[C@H](CCC(=O)O)NC(=O)[C@H](C)NC(=O)[C@H](CC(C)C)NC(=O)[C@H](CCCNC(=N)N)NC(=O)[C@H](CCC(N)=O)NC(=O)[C@@H](NC(=O)[C@H](C)NC(=O)[C@@H]1CSSC[C@H](NC(=O)[C@H](CCC(=O)O)NC(=O)CC[C@H](NC(=O)CCCCCCCCCCCCCCCCCCC(=O)O)C(=O)O)C(=O)N[C@@H](CC(N)=O)C(=O)N[C@@H]([C@@H](C)O)C(=O)N[C@@H](C)C(=O)N[C@@H]([C@@H](C)O)C(=O)N1)[C@@H](C)O)C(=O)N[C@@H](CC(C)C)C(=O)N1CCC[C@H]1C(=O)N1CCC[C@H]1C(=O)N[C@H](C(=O)N[C@@H](CC(N)=O)C(=O)N[C@H](C(=O)NCC(=O)N[C@@H](CO)C(=O)N[C@@H](CC(N)=O)C(=O)N[C@H](C(=O)N[C@@H](Cc1ccc(O)cc1)C(N)=O)[C@@H](C)O)C(C)C)[C@@H](C)O` [Example 30, N-alpha-[(S)-4-Carboxy-4-(19-carboxynonadecanoylamino)butyryl]-[Glu1,Glu14,His17,Arg18]-pramlintide] ({C20 diacid-γGlu}-ECNTATCATQRLAEFLHRSSNNFGPILPPTNVGSNTY-NH2; disulfide 2-7 (inferred)), the EC50 turned out to be 0.174 nM in data set [1] and 0.753 nM in data set [2]. Also, in data set [3], the “ThT pH 4.0 lag time (h)” value is 4.7 h. Also, the solubility at 18 h in data set [4] (setting [5]), in data set [4] (setting [6]), in data set [4] (setting [7]), in data set [4] (setting [8]), in data set [4] (setting [9]) and in data set [4] (setting [10]) was over 200 µM throughout. Further, the solubility at 18 h is over 200 µM in data set [4] (setting [11]), over 200 µM in data set [4] (setting [12]), over 200 µM in data set [4] (setting [13]) and 69 µM (≈ 309 µg/mL) in data set [4] (setting [14]).

For orientation: EC50 means the midpoint of the concentration-response curve. Usually solubility stands for the dissolved amount per volume that the medium holds.
